This passage reports Ki results from patent US7851469B2, “Isoxazole-imidazole derivatives” (Hoffmann-La Roche Inc., priority 2007, dated 2010).

The Ki is a measure of affinity in units of concentration, obtained from inhibition or displacement. A high value points to a looser hold on the target.

The structures appear in SMILES notation.

The target in this assay is T1, GABA A receptor α5β3γ2 (hα5) (Homo sapiens, UniProt P18507+P31644).
T1 construct: expressed in transfected cells; host or cells: HEK293 (transiently transfected; membranes)
The assay is described as follows: [3H]flumazenil competition binding assay, human GABA A α5 receptor. The conditions noted are these: displacement of [3H]flumazenil (0.5 nM) from HEK293 cell membranes expressing α5β3γ2; means of two determinations. The procedure: Membrane Preparation and Binding Assay
The affinity of compounds at GABA A receptor subtypes was measured by competition for [3H]flumazenil (85 Ci/mmol; Roche) binding to HEK293 cells expressing rat (stably transfected) or human (transiently transfected) receptors of composition α1β3γ2, α2β3γ2, α3β3γ2 and α5β3γ2.
Cell pellets were suspended in Krebs-tris buffer (4.8 mM KCl, 1.2 mM CaCl2, 1.2 mM MgCl2, 120 mM NaCl, 15 mM Tris; pH 7.5; binding assay buffer), homogenized by polytron for ca. 20 sec on ice and centrifuged for 60 min at 4° C. (50000 g; Sorvall, rotor: SM24=20000 rpm). The cell pellets were resuspended in Krebs-tris buffer and homogenized by polytron for ca. 15 sec on ice. Protein was measured (Bradford method, Bio-Rad) and aliquots of 1 mL were prepared and stored at −80° C.
Radioligand binding assays were carried out in a volume of […] (96-well plates) which contained […] of cell membranes, [3H]flumazenil at a concentration of 1 nM for α1, α2, α3 subunits and 0.5 nM for α5 subunits and the test compound in the range of […]. Nonspecific binding was defined by 10^−5 M diazepam and typically represented less than 5% of the total binding. Assays were incubated to equilibrium for 1 hour at 4° C. and harvested onto GF/C uni-filters (Packard) by filtration using a Packard harvester and washing with ice-cold wash buffer (50 mM Tris; pH 7.5). After drying, filter-retained radioactivity was detected by liquid scintillation counting. Ki values were calculated using Excel-Fit (Microsoft) and are the means of two determinations.
The compound `FC(F)(F)c1onc(-c2ccccc2)c1-c1cn(-c2ccccc2)cn1` [Example 1, 3-Phenyl-4-(1-phenyl-1H-imidazol-4-yl)-5-trifluoromethyl-isoxazole] gave a Ki of 53.2 nM.

`CC(=O)c1ccc(-n2cnc(-c3c(-c4ccccc4)noc3C(F)(F)F)c2)cc1` [Example 3, 1-{4-[4-(3-Phenyl-5-trifluoromethyl-isoxazol-4-yl)-imidazol-1-yl]-phenyl}-ethanone] showed a Ki of 12.5 nM.

In turn, `FC(F)(F)c1ccc(-n2cnc(-c3c(-c4ccccc4)noc3C(F)(F)F)c2)cc1` [Example 4, 3-Phenyl-5-trifluoromethyl-4-[1-(4-trifluoromethyl-phenyl)-1H-imidazol-4-yl]-isoxazole] came in with a Ki of 39.7 nM.

Compound `N#Cc1ccc(-n2cnc(-c3c(-c4ccccc4)noc3C(F)(F)F)c2)cc1` [Example 5, 4-[4-(3-Phenyl-5-trifluoromethyl-isoxazol-4-yl)-imidazol-1-yl]-benzonitrile] showed a Ki of 41.2 nM.

Turning to `O=[N+]([O-])c1ccc(-n2cnc(-c3c(-c4ccccc4)noc3C(F)(F)F)c2)cc1` [Example 7, 4-[1-(4-Nitro-phenyl)-1H-imidazol-4-yl]-3-phenyl-5-trifluoromethyl-isoxazole], the Ki turned out to be 19.7 nM.

The compound `Cc1ccc(-n2cnc(-c3c(-c4ccccc4)noc3C(F)(F)F)c2)cc1` [Example 8, 3-Phenyl-4-(1-p-tolyl-1H-imidazol-4-yl)-5-trifluoromethyl-isoxazole] returned a Ki of 84.2 nM.

For `COc1ccc(-n2cnc(-c3c(-c4ccccc4)noc3C(F)(F)F)c2)cc1` [Example 9, 4-[1-(4-Methoxy-phenyl)-1H-imidazol-4-yl]-3-phenyl-5-trifluoromethyl-isoxazole], the affinity, expressed as Ki, was 46.1 nM. Against the preceding compound, the Ki is about 1.8-fold lower.

For `O=C(NCC1CC1)c1ccc(-n2cnc(-c3c(-c4ccccc4)noc3C(F)(F)F)c2)cc1` [Example 10, N-Cyclopropylmethyl-4-[4-(3-phenyl-5-trifluoromethyl-isoxazol-4-yl)-imidazol-1-yl]-benzamide], the Ki is 23.6 nM.

`O=C(NCC(F)(F)F)c1ccc(-n2cnc(-c3c(-c4ccccc4)noc3C(F)(F)F)c2)cc1` [Example 11, 4-[4-(3-Phenyl-5-trifluoromethyl-isoxazol-4-yl)-imidazol-1-yl]-N-(2,2,2-trifluoro-ethyl)-benzamide]: the affinity corresponds to a Ki of 17.6 nM.

`O=C(NC1CC1)c1ccc(-n2cnc(-c3c(-c4ccccc4)noc3C(F)(F)F)c2)cc1` [Example 12, N-Cyclopropyl-4-[4-(3-phenyl-5-trifluoromethyl-isoxazol-4-yl)-imidazol-1-yl]-benzamide]: the Ki amounted to 11.7 nM.

Compound `O=C(NC1CCOCC1)c1ccc(-n2cnc(-c3c(-c4ccccc4)noc3C(F)(F)F)c2)cc1` [Example 13, 4-[4-(3-Phenyl-5-trifluoromethyl-isoxazol-4-yl)-imidazol-1-yl]-N-(tetrahydro-pyran-4-yl)-benzamide] returned a Ki of 41.2 nM.

On to `COC(=O)c1ccc(-n2cnc(-c3c(-c4ccccc4)noc3C(F)(F)F)c2)nc1` [Example 17, 6-[4-(3-Phenyl-5-trifluoromethyl-isoxazol-4-yl)-imidazol-1-yl]-nicotinic acid methyl ester], for which the affinity, expressed as Ki, was 31.5 nM.

With `O=C(c1ccc(-n2cnc(-c3c(-c4ccccc4)noc3C(F)(F)F)c2)nc1)N1CCSCC1` [Example 23, {6-[4-(3-Phenyl-5-trifluoromethyl-isoxazol-4-yl)-imidazol-1-yl]-pyridin-3-yl}-thiomorpholin-4-yl-methanone], the affinity corresponds to a Ki of 91.1 nM. Compared with the last compound, the Ki is about 2.9-fold higher.

`COC(=O)c1ccc(-n2cnc(-c3c(-c4ccc(F)cc4)noc3C(F)(F)F)c2)cc1` [Example 27, 4-{4-[3-(4-Fluoro-phenyl)-5-trifluoromethyl-isoxazol-4-yl]-imidazol-1-yl}-benzoic acid methyl ester] came in with a Ki of 22.1 nM. Against the preceding compound, the Ki is about 4.1-fold lower.

With `O=C(O)c1ccc(-n2cnc(-c3c(-c4ccc(F)cc4)noc3C(F)(F)F)c2)cc1` [Example 28, 4-{4-[3-(4-Fluoro-phenyl)-5-trifluoromethyl-isoxazol-4-yl]-imidazol-1-yl}-benzoic acid], the Ki was found to be 76.7 nM.

As for `CC(C)(O)c1ccc(-n2cnc(-c3c(-c4ccc(F)cc4)noc3C(F)(F)F)c2)cc1` [Example 29, 2-(4-{4-[3-(4-Fluoro-phenyl)-5-trifluoromethyl-isoxazol-4-yl]-imidazol-1-yl}-phenyl)-propan-2-ol], the affinity, expressed as Ki, was 28.4 nM.

Regarding `NC(=O)c1ccc(-n2cnc(-c3c(-c4ccc(F)cc4)noc3C(F)(F)F)c2)cc1` [Example 31, 4-{4-[3-(4-Fluoro-phenyl)-5-trifluoromethyl-isoxazol-4-yl]-imidazol-1-yl}-benzamide], the affinity corresponds to a Ki of 17.1 nM. This Ki is about 1.7-fold lower than that of the compound before.

Compound `O=C(c1ccc(-n2cnc(-c3c(-c4ccc(F)cc4)noc3C(F)(F)F)c2)cc1)N1CCS(=O)(=O)CC1` [Example 35, (1,1-Dioxo-1λ6-thiomorpholin-4-yl)-(4-{4-[3-(4-fluoro-phenyl)-5-trifluoromethyl-isoxazol-4-yl]-imidazol-1-yl}-phenyl)-methanone] registered a Ki of 87.4 nM.

`CC(=O)c1ccc(-n2cnc(-c3c(-c4ccc(F)cc4)noc3C(F)(F)F)c2)nc1` [Example 36, 1-(6-{4-[3-(4-Fluoro-phenyl)-5-trifluoromethyl-isoxazol-4-yl]-imidazol-1-yl}-pyridin-3-yl)-ethanone]: the inhibitory constant (Ki) worked out at 17.2 nM.

`N#Cc1ccc(-n2cnc(-c3c(-c4ccc(F)cc4)noc3C(F)(F)F)c2)nc1` [Example 37, 6-{4-[3-(4-Fluoro-phenyl)-5-trifluoromethyl-isoxazol-4-yl]-imidazol-1-yl}-nicotinonitrile]: the inhibitory constant (Ki) stood at 32.3 nM.

On to `O=C(NCC(F)(F)F)c1ccc(-n2cnc(-c3c(-c4ccc(F)cc4)noc3C(F)(F)F)c2)nc1` [Example 39, 6-{4-[3-(4-Fluoro-phenyl)-5-trifluoromethyl-isoxazol-4-yl]-imidazol-1-yl}-N-(2,2,2-trifluoro-ethyl)-nicotinamide], for which the Ki stood at 4.9 nM.

As to `O=C(NC1CC1)c1ccc(-n2cnc(-c3c(-c4ccc(F)cc4)noc3C(F)(F)F)c2)nc1` [Example 40, N-Cyclopropyl-6-{4-[3-(4-fluoro-phenyl)-5-trifluoromethyl-isoxazol-4-yl]-imidazol-1-yl}-nicotinamide], the Ki was determined as 4.1 nM.

`CC(C)(O)c1ccc(-n2cnc(-c3c(-c4ccc(F)cc4)noc3C(F)(F)F)c2)nc1` [Example 43, 2-(6-{4-[3-(4-Fluoro-phenyl)-5-trifluoromethyl-isoxazol-4-yl]-imidazol-1-yl}-pyridin-3-yl)-propan-2-ol] displayed a Ki of 38.2 nM. This Ki lies about 9.3-fold higher than the previous one.

The compound `O=[N+]([O-])c1ccc(-n2cnc(-c3c(-c4ccc(Cl)cc4)noc3C(F)(F)F)c2)cc1` [Example 47, 3-(4-Chloro-phenyl)-4-[1-(4-nitro-phenyl)-1H-imidazol-4-yl]-5-trifluoromethyl-isoxazole] gave a Ki of 58.6 nM.

The compound `O=C(NC1CCOCC1)c1ccc(-n2cnc(-c3c(-c4ccc(Cl)cc4)noc3C(F)(F)F)c2)nc1` [Example 51, 6-{4-[3-(4-Chloro-phenyl)-5-trifluoromethyl-isoxazol-4-yl]-imidazol-1-yl}-N-(tetrahydro-pyran-4-yl)-nicotinamide] gave a Ki of 8.5 nM. This Ki is about 6.9-fold lower than that of the compound before.

With `FC(F)(F)c1onc(-c2ccccc2)c1-c1cn(-c2ncccn2)cn1` [Example 54, 2-[4-(3-Phenyl-5-trifluoromethyl-isoxazol-4-yl)-imidazol-1-yl]-pyrimidine], the affinity corresponds to a Ki of 73 nM.

Turning to `O=C(NC1CC1)c1cnc(-n2cnc(-c3c(-c4ccccc4)noc3C(F)(F)F)c2)cn1` [Example 55, 5-[4-(3-Phenyl-5-trifluoromethyl-isoxazol-4-yl)-imidazol-1-yl]-pyrazine-2-carboxylic acid cyclopropylamide], the Ki turned out to be 14.1 nM. Against the preceding compound, the Ki is about 5.2-fold lower.
